We go through 1 molecule from US12351572B2, “Substituted 1,2,4-triazoles as TYK2 inhibitors” (Alumis Inc., priority 2018, dated 2025).

One may read the Cmax as the peak of the concentration-time curve.

Holding throughout (format): in vivo
Data set [1] in a line: Pharmacokinetics in C57BL/6 mice. The conditions noted are these: male, mouse, plasma, iv, C0, I.V. (2 mg/kg), read-out: C0 or Cmax. As to the method:
(§1) The pharmacokinetics of test compounds were evaluated in male C57BL/6 mice, Sprague Dawley rats, Beagle dogs, and cynomolgus monkeys when administered via oral gavage and IV injection. The animals were fasted overnight before administration. Plasma samples were collected predose and at 0.5, 1, 3, 6, 9, 12, and 24 hours postdose. The samples were analyzed by LC/MS/MS and the concentration of test compound at each timepoint was determined by linear regression. Pharmacokinetic parameters were calculated from the plasma concentrations using Pheonix WinNonlin.

Data set [2] is described as follows: Pharmacokinetics in Sprague Dawley rats. The conditions noted are these: rat, plasma, iv, C0, I.V. (1 mg/kg), read-out: C0 or Cmax. As to the method: as §1
Data set [3] is described as follows: Pharmacokinetics in Beagle dogs. The conditions noted are these: dog, plasma, iv, C0, I.V. (1 mg/kg), read-out: C0 or Cmax. As to the method: as §1
The nature of data set [4]: Pharmacokinetics in cynomolgus monkeys. Particulars: cynomolgus monkey, plasma, iv, C0, I.V. (1 mg/kg), read-out: C0 or Cmax. Here is the method:
as §1

For the molecule `[2H]C([2H])([2H])NC(=O)c1nnc(NC(=O)C2CC2)cc1Nc1cccc(-c2ncn(C)n2)c1OC` [control, BMS-986165], the Cmax in data set [1] came to 3220 ng/mL; in data set [2], 1740 ± 276 ng/mL; in data set [3], 559 ± 34 ng/mL; in data set [4], 1420 ± 264 ng/mL.
